Experimental findings from patent US20150157682A1, “VALERIAN EXTRACTS AND USES THEREOF” (priority 2012, published 2015) are described below.

In the assay the target is benzodiazepine receptors (3H-flunitrazepam labelled binding sites). Put plainly: 3H-flunitrazepam competition binding assay, crude synaptosomal membranes of rat frontal cortex. As to conditions: 1 nM 3H-flunitrazepam.

Protocol: For the binding experiment male RjHan:WI rats (Janvier, Le Genest-Saint-Isle, France) were used. […] The animals were housed in groups of 5 in Macrolon IV cages.
For the ^3H-GABA binding assay tissue (dissected rat frontal cortex) was homogenized in 50 mM Tris-HCl buffer pH 7.4 containing 120 mM NaCl, 5 mM KCl, 2 mM CaCl2 and 1 mM MgCl2; for ^3H-flunitrazepam it was homogenized in 50 mM Tris-HCl buffer pH 7.4 containing 1 mM EGTA, 10 mM EDTA and 3 mM MgCl2, centrifuged (50.000 g, 15 min) and washed twice with the corresponding buffer. The resulting pellet was resuspended with buffer. […] Specific binding was calculated by subtracting non-specific binding—defined as that seen in the presence of 1 μM unlabelled GABA or 1 μM diazepam or chlordiazepoxide—from the total binding obtained with radioligand alone. In parallel VE-1, VE-2 and AVA were used for all binding assays. The incubation was terminated by addition of ice-cold buffer and rapid filtration through glass fibre filters. The filters were washed, dried, a scintillation cocktail was added, and radioactivity was counted using a β-counter (Beckman Coulter, Germany).

In the case of `CN1C(=O)CN=C(c2ccccc2)c2cc(Cl)ccc21` [Diazepam, diazepam], a half-maximal response (EC50) required 400 ± 50 nM.

The term EC50 denotes the concentration needed to bring the measured effect to its halfway point. Low values mean a more potent agent, high ones a less potent agent.
